The IC50 is the midpoint of a concentration-inhibition curve.

Read-outs that look alike come from different tables or passages of the source. Where only a bound is given, the exact number is not on record here.

The values that follow come from US8268848B2, “Cyclopropane compound” (Eisai R&D Management Co., Ltd., priority 2010, dated 2012).

For assay [1], the target named is T1, OX2 (Homo sapiens, UniProt O43614).
T1 sequence (O43614 1-444): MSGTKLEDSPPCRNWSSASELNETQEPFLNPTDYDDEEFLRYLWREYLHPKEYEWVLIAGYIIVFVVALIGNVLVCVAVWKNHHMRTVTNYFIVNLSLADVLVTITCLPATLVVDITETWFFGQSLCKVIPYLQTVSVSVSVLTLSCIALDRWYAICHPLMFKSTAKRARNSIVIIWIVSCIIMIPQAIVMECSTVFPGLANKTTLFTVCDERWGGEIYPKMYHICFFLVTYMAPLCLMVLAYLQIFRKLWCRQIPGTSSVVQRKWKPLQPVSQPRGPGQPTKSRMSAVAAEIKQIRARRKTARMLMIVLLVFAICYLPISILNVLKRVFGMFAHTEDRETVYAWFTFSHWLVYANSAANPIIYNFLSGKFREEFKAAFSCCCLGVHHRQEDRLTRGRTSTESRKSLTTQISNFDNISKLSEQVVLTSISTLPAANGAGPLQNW
Briefly: Measurement of orexin receptor-binding ability ([125I]-OX-A, cell membranes, OX2). More on the design: expressed in transfected cells; host or cells: CHO cells (membrane preparation). To be noted: membranes of recombinant CHO cells expressing OX2, 0.2 nM [125I]-OX-A.

Assay [2] concerns the target T2, OX1 (Homo sapiens, UniProt O43613).
T2 sequence (O43613 1-425): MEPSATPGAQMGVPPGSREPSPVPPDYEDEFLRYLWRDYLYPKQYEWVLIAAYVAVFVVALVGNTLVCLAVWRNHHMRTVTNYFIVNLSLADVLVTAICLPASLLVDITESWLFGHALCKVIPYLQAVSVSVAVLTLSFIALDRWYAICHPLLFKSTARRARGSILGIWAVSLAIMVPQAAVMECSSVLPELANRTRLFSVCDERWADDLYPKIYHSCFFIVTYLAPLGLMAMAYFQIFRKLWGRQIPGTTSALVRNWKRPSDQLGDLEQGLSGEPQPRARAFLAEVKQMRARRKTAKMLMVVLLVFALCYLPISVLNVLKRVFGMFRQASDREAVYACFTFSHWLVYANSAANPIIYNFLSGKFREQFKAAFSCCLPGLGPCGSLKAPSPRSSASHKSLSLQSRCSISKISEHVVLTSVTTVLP
The experiment in a line: Measurement of orexin receptor-binding ability ([125I]-OX-A, cell membranes, OX1). Also on record: expressed in transfected cells; host or cells: CHO cells (membrane preparation). The protocol:
1. Measurement of Orexin Receptor-Binding Ability
The assay was carried out using a 96-well Wheat Germ Agglutinin Flash Plate (PerkinElmer). The volume in a single assay well was 100 ul, and the composition of the reaction solution was as follows:
25 mM HEPES (pH 7.5), 1 mM CaCl2, 4.5 mM MgCl2, 0.5% BSA (bovine serum albumin), 0.1% sodium azide, 0.05% Tween-20, and 0.2% DMSO.
Cell membranes were prepared from recombinant CHO cells that expressed OX2 or OX1. The cell membranes were used in an amount of 5 μg protein/assay. […] Finally, the radioactivity of each well was measured using a scintillation counter (TopCount, PerkinElmer).

The mark [3] stands for this setting: membranes of recombinant CHO cells expressing OX1, 0.2 nM [125I]-OX-A, read-out: OX1 (IC50).

On to `Cc1nc(C)[n+]([O-])cc1OC[C@@]1(c2ccccc2)C[C@H]1C(=O)Nc1ccc(F)nc1` [Example 81, (1R,2S)-2-[(2,4-dimethyl-1-oxopyrimidin-5-yl)oxymethyl]-N-(6-fluoropyridin-3-yl)-2-phenylcyclopropanecarboxamide], for which the IC50 in assay [1] (read-out: OX2 (IC50)) amounted to 63 nM; in assay [2] (setting [3]) it was 2590 nM.
For the compound `Cc1ncc(OC[C@@]2(c3cccc(F)c3)C[C@H]2C(=O)Nc2ccc(F)c(F)c2)c(C)n1` [Example 84, (1R,2S)-N-(3,4-difluorophenyl)-2-{[(2,4-dimethylpyrimidin-5-yl)oxy]methyl}-2-(3-fluorophenyl)cyclopropanecarboxamide], the IC50 in assay [1] (OX2 (IC50) nM) worked out at 3 nM; in assay [2], 6 nM.
The like results for `Cc1ncc(OC[C@@]2(c3cccc(F)c3)C[C@H]2C(=O)Nc2cc(Cl)ccn2)c(C)n1` [Example 85, (1R,2S)-N-(4-chloropyridin-2-yl)-2-{[(2,4-dimethylpyrimidin-5-yl)oxy]methyl}-2-(3-fluorophenyl)cyclopropanecarboxamide] were, in that order, 5 nM and 4 nM.
The like results for `COCc1cc(NC(=O)[C@@H]2C[C@@]2(COc2cnc(C)nc2C)c2cccc(F)c2)ncc1F` [Example 86, (1R,2S)-2-{[(2,4-dimethylpyrimidin-5-yl)oxy]methyl}-N-(5-fluoro-4-methoxymethylpyridin-2-yl)-2-(3-fluorophenyl)cyclopropanecarboxamide] were, in that order, 6.1 nM and 6.3 nM.
For `Cc1ncc(OC[C@@]2(c3cccc(F)c3)C[C@H]2C(=O)Nc2ccccn2)c(C)n1` [Example 87], the IC50 in assay [1] (OX2 (IC50) nM) was found to be 10 nM; in assay [2], 43 nM.
The like results for `Cc1ncc(OC[C@@]2(c3cccc(F)c3)C[C@H]2C(=O)Nc2ccc(F)nc2)c(C)n1` [Example 88] were, in that order, 13 nM and 267 nM.
The like results for `COc1cncc(NC(=O)[C@@H]2C[C@@]2(COc2cnc(C)nc2C)c2cccc(F)c2)c1` [Example 89] were, in that order, 14 nM and 161 nM.
For `Cc1ncc(OC[C@@]2(c3cccc(F)c3)C[C@H]2C(=O)Nc2ccncc2)c(C)n1` [Example 90], the values for the IC50 in assay [1] (OX2 (IC50) nM) and in assay [2] were 95 nM and 2060 nM, respectively.
Consider `Cc1ncc(OC[C@@]2(c3cccc(F)c3)C[C@H]2C(=O)Nc2cnc(F)c(C)c2)c(C)n1` [Example 91], for which the IC50 is 22 nM in assay [1] (OX2 (IC50) nM) and 215 nM in assay [2].
The like results for `Cc1ncc(OC[C@@]2(c3cccc(F)c3)C[C@H]2C(=O)Nc2ccc(F)cc2)c(C)n1` [Example 92, (1R,2S)-2-{[(2,4-dimethylpyrimidin-5-yl)oxy]methyl}-2-(3-fluorophenyl)-N-(4-fluorophenyl)cyclopropanecarboxamide] were, in that order, 8 nM and 23 nM.
The like results for `Cc1ncc(OC[C@@]2(c3cccc(F)c3)C[C@H]2C(=O)Nc2ccccc2)c(C)n1` [Example 93, (1R,2S)-2-{[(2,4-dimethylpyrimidin-5-yl)oxy]methyl}-2-(3-fluorophenyl)-N-phenylcyclopropanecarboxamide] were, in that order, 9 nM and 54 nM.
`COc1cc(NC(=O)[C@@H]2C[C@@]2(COc2cnc(C)nc2C)c2cccc(F)c2)ncc1F` [Example 94, (1R,2S)-2-{[(2,4-dimethylpyrimidin-5-yl)oxy]methyl}-N-(5-fluoro-4-methoxypyridin-2-yl)-2-(3-fluorophenyl)cyclopropanecarboxamide]: the IC50 was 2.3 nM in assay [1] (OX2 (IC50) nM) and 2.8 nM in assay [2].
Turning to `Cc1ncc(OC[C@@]2(c3cccc(F)c3)C[C@H]2C(=O)Nc2ccnc(F)c2)c(C)n1` [Example 97], the IC50 was determined as 21 nM in assay [1] (OX2 (IC50) nM) and 105 nM in assay [2].
The like results for `Cc1ncc(OCC2(c3cccc(F)c3)CC2C(=O)Nc2cccnc2)c(C)n1` (stereo not drawn) [Example 99] were, in that order, 58 nM and 644 nM.
In the case of `Cc1ncc(OCC2(c3ccc(F)cc3)CC2C(=O)Nc2ccc(C#N)cn2)c(C)n1` (stereo not drawn) [Example 101], the values for the IC50 in assay [1] (read-out: OX2 (IC50)) and in assay [2] (setting [3]) were 84 nM and 290 nM, respectively.
Turning to `Cc1ncc(OCC2(c3ccc(F)cc3)CC2C(=O)Nc2ccc(Cl)cn2)c(C)n1` (stereo not drawn) [Example 102], the figures for the IC50 in assay [1] (OX2 (IC50) nM) and in assay [2] were 23 nM and 50 nM, respectively.
Turning to `Cc1ncc(OCC2(c3ccc(F)cc3)CC2C(=O)Nc2cccnc2)c(C)n1` (stereo not drawn) [Example 103], the IC50 in assay [1] (read-out: OX2 (IC50)) was determined as 96 nM; in assay [2] (setting [3]) it was 2940 nM.
The like results for `COc1cc(NC(=O)[C@@H]2C[C@@]2(COc2cnc(C)nc2C)c2ccc(F)cc2)ncc1F` [Example 104] were, in that order, 4.3 nM and 4 nM.
On to `COCc1cc(NC(=O)[C@@H]2C[C@@]2(COc2cnc(C)nc2C)c2ccc(F)cc2)ncc1F` [Example 109, (1R,2S)-2-{[(2,4-dimethylpyrimidin-5-yl)oxy]methyl}-N-(5-fluoro-4-methoxymethylpyridin-2-yl)-2-(4-fluorophenyl)cyclopropanecarboxamide], for which the IC50 amounted to 5.8 nM in assay [1] (OX2 (IC50) nM) and 12 nM in assay [2].
The like results for `Cc1ncc(OC[C@@]2(c3ccc(F)cc3)C[C@H]2C(=O)Nc2ccccn2)c(C)n1` [Example 110] were, in that order, 110 nM and 340 nM.
With `Cc1ncc(OC[C@@]2(c3ccc(F)cc3)C[C@H]2C(=O)Nc2cc(C)c(F)cn2)c(C)n1` [Example 111, (1R,2S)-2-{[(2,4-dimethylpyrimidin-5-yl)oxy]methyl}-N-(5-fluoro-4-methylpyridin-2-yl)-2-(4-fluorophenyl)cyclopropanecarboxamide], the IC50 was 6 nM in assay [1] (read-out: OX2 (IC50)) and 34 nM in assay [2] (setting [3]).
Turning to `COc1cncc(NC(=O)[C@@H]2C[C@@]2(COc2cnc(C)nc2C)c2ccc(F)cc2)c1` [Example 112], the IC50 is 18 nM in assay [1] (read-out: OX2 (IC50)) and 1020 nM in assay [2] (setting [3]).
The like results for `Cc1ncc(OC[C@@]2(c3cccc(C#N)c3)C[C@H]2C(=O)Nc2cc(C)c(F)cn2)c(C)n1` [Example 117, (1R,2S)-2-(3-cyanophenyl)-2-{[(2,4-dimethylpyrimidin-5-yl)oxy]methyl}-N-(5-fluoro-4-methylpyridin-2-yl)cyclopropanecarboxamide] were, in that order, 4 nM and 19 nM.
The like results for `CCc1nc(C)ncc1OC[C@@]1(c2ccccc2)C[C@H]1C(=O)Nc1ccccn1` [Example 118, (1R,2S)-2-{[(4-ethyl-2-methylpyrimidin-5-yl)oxy]methyl}-2-phenyl-N-(pyridin-2-yl)cyclopropanecarboxamide] were, in that order, 24 nM and 342 nM.
The like results for `CCc1nc(C)ncc1OC[C@@]1(c2ccccc2)C[C@H]1C(=O)Nc1cc(C)c(F)cn1` [Example 122] were, in that order, 7 nM and < 20 nM.
Regarding `COc1ccccc1C1(COc2cnc(C)nc2C)CC1C(=O)Nc1ccc(F)cn1` (stereo not drawn) [Example 125], the IC50 came out at 84 nM in assay [1] (OX2 (IC50) nM) and 1050 nM in assay [2].
In the case of `COc1ccccc1C1(COc2cnc(C)nc2C)CC1C(=O)Nc1cccnc1` (stereo not drawn) [Example 126], the IC50 was found to be 107 nM in assay [1] (read-out: OX2 (IC50)) and 100 nM in assay [2] (setting [3]).
The like results for `COc1ncc(OC[C@@]2(c3ccccc3)C[C@H]2C(=O)Nc2ccc(C#N)cn2)c(C)n1` [Example 127, (1R,2S)-N-(5-cyanopyridin-2-yl)-2-{[(2-methoxy-4-methylpyrimidin-5-yl)oxy]methyl}-2-phenylcyclopropanecarboxamide] were, in that order, 80 nM and 1100 nM.
The like results for `CCc1ncc(OC[C@@]2(c3ccccc3)C[C@H]2C(=O)Nc2ccc(Cl)cn2)c(C)n1` [Example 128, (1R,2S)-N-(5-chloropyridin-2-yl)-2-{[(2-ethyl-4-methylpyrimidin-5-yl)oxy]methyl}-2-phenylcyclopropanecarboxamide] were, in that order, 75 nM and 231 nM.
In the case of `Cc1ncc(OC[C@@]2(c3cc(F)cc(F)c3)C[C@H]2C(=O)Nc2ccccn2)c(C)n1` [Example 131, (1R,2S)-2-(3,5-difluorophenyl)-2-{[(2,4-dimethylpyrimidin-5-yl)oxy]methyl}-N-(pyridin-2-yl)cyclopropanecarboxamide], the IC50 in assay [1] (OX2 (IC50) nM) is 5 nM; in assay [2], 89 nM.
